Data taken from patent publication US20240182460A1, “ALLOSTERIC CHROMENONE INHIBITORS OF PHOSPHOINOSITIDE 3-KINASE (PI3K) FOR THE TREATMENT OF DISEASE” (PETRA PHARMA CORPORATION, priority 2022, published 2024).

Target: PI3Kα E545K (Homo sapiens, UniProt P42336, E545K)
Test: PI3Kα E545K mutant in vitro cell based assay, MDA-MB-361 cells
Parameters: MDA-MB-361 (ATCC-HTB-27) cell line (PI3Kα E545K); host or cells: MDA-MB-361
Conditions: MDA-MB-361 cell line, 0% FBS, no insulin, 3 hours treatment
From the text: PI3K-Alpha Kinase (PI3Kα) Activity: Wild-Type PI3Kα, H1047R Mutant PI3Kα, and E545K Mutant PI3Kα In Vitro Cell Based Assays and Determination of IC50 Values for Inhibitors
The MDA-MB-453 (ATCC-HTB-131) cell line (PI3Kα H1047R) and MCF-7 (ATCC-HTB-22) cell line (PI3Kα E545K), MDA-MB-361 (ATCC-HTB-27) cell line (PI3Kα E545K), and SKBR3 (ATCC-HTB-30) cell line (wild type PI3Kα) were obtained from the American Type Culture Collection (Manassas, VA). MDA-MB-453 cells were maintained in Dulbecco's Modified Eagle Media (DMEM, Gibco 12430) supplemented with 10% Fetal Bovine Serum, heat inactivated (FBS HI, Gibco 10082), 1× non-essential amino acids (NEAA, Gibco 11140), 1 mM sodium pyruvate (Gibco 11360) and 1× Anti-Anti (Gibco 15240). MCF-7 cells were maintained in Minimum Essential Media (MEM) (Gibco 11095) supplemented with 10% Fetal Bovine Serum, heat inactivated (FBS HI, Gibco 10082), 1× non-essential amino acids (NEAA, Gibco 11140), 1 mM sodium pyruvate (Gibco 11360), 1× Anti-Anti (Gibco 15240) and 10 μg/mL human insulin (Sigma I 9278). MDA-MB-361 cells were maintained in Dulbecco's Modified Eagle Media (DMEM, Gibco 12430) supplemented with 20% Fetal Bovine Serum, heat inactivated (FBS HI, Gibco 10082), 1× non-essential amino acids (NEAA, Gibco 11140), 1 mM sodium pyruvate (Gibco 11360) and 1× Anti-Anti (Gibco 15240). SKBR3 cells were maintained in McCoy's 5A (Gibco 16600) supplemented with 10% Fetal Bovine Serum, heat inactivated (FBS HI, Gibco 10082), and 1× Anti-Anti (Gibco 15240). Cultures were maintained in a humidified incubator at 37° C. under 5% CO2/95% air.
For compound testing in 0% FBS, MDA-MB-453, MCF-7 and SKBR3 cells were seeded at a density of 1.5×10^4, 1.0×10^4, and 1.0×10^4 cells, respectively, per well in white 384-well plates in 20 μl of Minimum Essential Media (MEM) assay media with 1×NEAA, 1 mM sodium pyruvate, and 1 μg/mL human insulin (Sigma 19278) (Assay Medium); while MDA-MB-361 cells were seeded at a density of 1.5×10^4 per well in white 384-well plates in 20 μl Assay Medium without insulin. After plating, cells were allowed to attach overnight. Compounds dissolved in 10 mM stock solutions in DMSO were serially diluted 1:3 in DMSO to generate a 10-point dilution series and plated using an acoustic liquid handler system (Echo 550 Series Liquid Handler, Labcyte). A 5× intermediate compound dilution plate in MEM with 1×NEAA and 1 mM sodium pyruvate (150 μM starting compound concentration in 1.5% DMSO) was then prepared. Five μl of the intermediate serially diluted compounds were added to the cell plate to final concentrations ranging from […] in 0.3% DMSO. 0.3% DMSO alone was used to establish the maximum (MAX) signal and GDC-0032 at a final concentration of 1 μM was used as a reference compound for the minimum (MIN) signal. After 3 hours treatment, the medium was removed, and the cells were lysed in 10 μL of 1× SureFire Lysis buffer with shaking for 10 minutes at room temperature. The Acceptor Mix (Reaction Buffer 1+Reaction Buffer 2+Activation Buffer+SureFire Ultra Acceptor Beads) was prepared by diluting Activation buffer 25-fold in combined Reaction Buffer 1 and Reaction Buffer 2.
The Acceptor beads were diluted 50-fold in the combined Reaction Buffers. Five μL of Acceptor Mix was added to each well, the plate was sealed and covered with foil and incubated for 1 hour at room temperature. The Donor Mix (dilution buffer+SureFire Ultra Donor Beads) was prepared by diluting Donor Beads 50-fold in dilution buffer. Five μL of the Donor Mix was added to each well and the plate sealed and covered with foil and incubated for 1-2 hours at room temperature in the dark. The plates were read on a Neo2 plate reader instrument from Biotek using standard AlphaLisa settings.
Compounds were tested in duplicate and the % inhibition at each compound concentration was used to generate two dose response curves. One IC50 was generated using average % inhibition at each compound concentration. […]

PI3Kα E545K, sequence (P42336 whole entry E545K): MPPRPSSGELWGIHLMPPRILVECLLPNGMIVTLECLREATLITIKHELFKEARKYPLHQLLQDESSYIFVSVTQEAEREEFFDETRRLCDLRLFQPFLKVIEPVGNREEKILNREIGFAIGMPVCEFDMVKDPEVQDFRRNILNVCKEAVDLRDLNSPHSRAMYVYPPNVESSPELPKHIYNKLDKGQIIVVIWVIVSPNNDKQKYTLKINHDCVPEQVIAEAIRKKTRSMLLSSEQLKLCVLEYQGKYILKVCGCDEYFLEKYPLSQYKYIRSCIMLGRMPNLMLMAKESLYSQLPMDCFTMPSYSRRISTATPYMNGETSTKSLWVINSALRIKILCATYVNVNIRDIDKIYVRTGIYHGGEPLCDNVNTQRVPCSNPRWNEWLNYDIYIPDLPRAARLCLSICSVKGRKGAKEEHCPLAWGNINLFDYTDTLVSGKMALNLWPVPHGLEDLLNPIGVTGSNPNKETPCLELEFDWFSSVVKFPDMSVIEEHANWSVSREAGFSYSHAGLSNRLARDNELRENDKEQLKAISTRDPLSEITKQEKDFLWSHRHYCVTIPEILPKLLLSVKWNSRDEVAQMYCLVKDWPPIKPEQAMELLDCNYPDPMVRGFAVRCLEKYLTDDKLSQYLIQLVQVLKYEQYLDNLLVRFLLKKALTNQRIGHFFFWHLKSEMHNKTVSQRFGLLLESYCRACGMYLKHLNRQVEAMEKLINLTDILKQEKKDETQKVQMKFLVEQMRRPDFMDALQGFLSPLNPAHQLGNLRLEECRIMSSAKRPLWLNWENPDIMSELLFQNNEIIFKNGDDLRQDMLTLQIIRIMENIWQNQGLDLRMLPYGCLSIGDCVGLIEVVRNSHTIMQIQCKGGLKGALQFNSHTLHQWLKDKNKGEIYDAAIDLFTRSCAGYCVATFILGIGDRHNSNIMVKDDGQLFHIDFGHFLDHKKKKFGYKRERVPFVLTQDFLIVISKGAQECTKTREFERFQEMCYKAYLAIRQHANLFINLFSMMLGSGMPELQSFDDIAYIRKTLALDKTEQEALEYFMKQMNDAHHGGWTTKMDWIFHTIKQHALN
PI3Kα E545K, sequence (P27986 whole entry partner): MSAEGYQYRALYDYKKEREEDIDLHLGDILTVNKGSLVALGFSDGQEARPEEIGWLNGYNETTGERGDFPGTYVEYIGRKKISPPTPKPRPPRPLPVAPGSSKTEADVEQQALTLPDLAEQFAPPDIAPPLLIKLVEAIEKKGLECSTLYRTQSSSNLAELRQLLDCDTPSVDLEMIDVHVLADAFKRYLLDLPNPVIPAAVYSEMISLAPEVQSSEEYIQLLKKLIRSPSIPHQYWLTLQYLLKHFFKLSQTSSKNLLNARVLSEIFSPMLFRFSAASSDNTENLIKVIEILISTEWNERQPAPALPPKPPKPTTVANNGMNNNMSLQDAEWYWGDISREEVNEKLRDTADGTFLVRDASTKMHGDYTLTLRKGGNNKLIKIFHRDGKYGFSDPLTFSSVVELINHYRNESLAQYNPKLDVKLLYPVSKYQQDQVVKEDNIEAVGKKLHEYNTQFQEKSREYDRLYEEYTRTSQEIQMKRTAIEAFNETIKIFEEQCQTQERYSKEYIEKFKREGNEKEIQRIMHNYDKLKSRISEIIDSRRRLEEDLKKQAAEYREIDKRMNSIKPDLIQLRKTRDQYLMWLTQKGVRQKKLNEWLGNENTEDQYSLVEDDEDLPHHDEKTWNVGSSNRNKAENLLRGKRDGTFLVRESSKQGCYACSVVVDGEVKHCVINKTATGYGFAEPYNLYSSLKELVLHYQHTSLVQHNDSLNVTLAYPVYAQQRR

IC50, < 500 nM:
Cc1cc([C@@H](C)Oc2ccc(Cl)nc2C(N)=O)c2oc(-c3ccc4cncn4c3)c(C)c(=O)c2c1 [Example 43C, 6-Chloro-3-[(1R)-1-(2-imidazo[1,5-a]pyridin-6-yl-3,6-dimethyl-4-oxo-chromen-8-yl)ethoxy]pyridine-2-carboxamide]
Cc1cc([C@@H](C)Oc2ccc(Cl)nc2S(N)(=O)=O)c2oc(-c3cnn(CC4(C#N)CC4)c3)c(C)c(=O)c2c1 [Example 124C, 6-Chloro-3-[(1R)-1-[2-[1-[(1-cyanocyclopropyl)methyl]pyrazol-4-yl]-3,6-dimethyl-4-oxo-chromen-8-yl]ethoxy]pyridine-2-sulfonamide]
Cc1cc([C@@H](C)Oc2cccnc2-c2ccccc2F)c2oc(-c3ccc(=O)[nH]c3)c(C)c(=O)c2c1 [Example 30A]
Cc1cc([C@@H](C)Oc2ccc(Cl)nc2S(N)(=O)=O)c2oc(-c3cnc4c(c3)OCO4)c(C)c(=O)c2c1 [Example 15A, 6-Chloro-3-[(1R)-1-[2-([1,3]dioxolo[4,5-b]pyridin-6-yl)-3,6-dimethyl-4-oxo-chromen-8-yl]ethoxy]pyridine-2-sulfonamide]
Cc1cc([C@@H](C)Oc2ccc(Cl)nc2C(N)=O)c2oc(-c3cnc4c(c3)OCO4)c(C)c(=O)c2c1 [Example 59A, 6-Chloro-3-[(1R)-1-[2-([1,3]dioxolo[4,5-b]pyridin-6-yl)-3,6-dimethyl-4-oxo-chromen-8-yl]ethoxy]pyridine-2-carboxamide]
Cc1cc([C@@H](C)Oc2ccc(Cl)nc2C(=O)NOCC2CC2)c2oc(-c3ccc4nn(C)cc4c3)c(C)c(=O)c2c1 [Example 28A, 6-Chloro-N-(cyclopropylmethoxy)-3-[(1R)-1-[3,6-dimethyl-2-(2-methylindazol-5-yl)-4-oxo-chromen-8-yl]ethoxy]pyridine-2-carboxamide]
Cc1cc([C@@H](C)Oc2ccc(Cl)nc2S(N)(=O)=O)c2oc(-c3ccccc3)c(C)c(=O)c2c1 [Example 13A, 6-Chloro-3-[(1R)-1-(3,6-dimethyl-4-oxo-2-phenyl-chromen-8-yl)ethoxy]pyridine-2-sulfonamide]
CONS(=O)(=O)c1nc(Cl)ccc1O[C@H](C)c1cc(C)cc2c(=O)c(C)c(-c3cnn(CC(C)(C)O)c3)oc12 [Example 121C, 6-Chloro-3-[(1R)-1-[2-[1-(2-hydroxy-2-methyl-propyl)pyrazol-4-yl]-3,6-dimethyl-4-oxo-chromen-8-yl]ethoxy]-N-methoxy-pyridine-2-sulfonamide]
Cc1cc([C@@H](C)Oc2ccc(Cl)nc2C(N)=O)c2oc(-c3ccc4occc4c3)c(C)c(=O)c2c1 [Example 61C, 3-[(1R)-1-[2-(Benzofuran-5-yl)-3,6-dimethyl-4-oxo-chromen-8-yl]ethoxy]-6-chloro-pyridine-2-carboxamide]
Cc1cc([C@@H](C)Oc2ccc(Cl)cc2S(N)(=O)=O)c2oc(-c3cnc4ccoc4c3)c(C)c(=O)c2c1 [Example 100C, 5-Chloro-2-[(1R)-1-(2-furo[3,2-b]pyridin-6-yl-3,6-dimethyl-4-oxo-chromen-8-yl)ethoxy]benzenesulfonamide]
Cc1cc([C@@H](C)Oc2ccc(Cl)nc2C(N)=O)c2oc(-c3ccc4nn(C)nc4c3)c(C)c(=O)c2c1 [Example 50A, 6-Chloro-3-[(1R)-1-[3,6-dimethyl-2-(2-methylbenzotriazol-5-yl)-4-oxo-chromen-8-yl]ethoxy]pyridine-2-carboxamide]
Cc1cc([C@@H](C)Oc2ccc(Cl)nc2C(N)=O)c2oc(-c3ccc4nn(C)c(C)c4c3)c(C)c(=O)c2c1 [Example 50C, 6-Chloro-3-[(1R)-1-[2-(2,3-dimethylindazol-5-yl)-3,6-dimethyl-4-oxo-chromen-8-yl]ethoxy]pyridine-2-carboxamide]
Cc1cc([C@@H](C)Oc2ccc(Cl)nc2S(N)(=O)=O)c2oc(-c3cnc4c(c3)OCCO4)c(C)c(=O)c2c1 [Example 6B]
Cc1cc([C@@H](C)Oc2ccc(F)cc2S(N)(=O)=O)c2oc(-c3cnc4ccoc4c3)c(C)c(=O)c2c1 [Example 106C, 5-Fluoro-2-[(1R)-1-(2-furo[3,2-b]pyridin-6-yl-3,6-dimethyl-4-oxo-chromen-8-yl)ethoxy]benzenesulfonamide]
Cc1cc([C@@H](C)Oc2ccc(Cl)nc2S(N)(=O)=O)c2oc(-c3cnn(C[C@]45C[C@H](CO4)C5)c3)c(C)c(=O)c2c1 [Example 118C, 6-Chloro-3-[(1R)-1-[3,6-dimethyl-2-[1-(2-oxabicyclo[2.1.1]hexan-1-ylmethyl)pyrazol-4-yl]-4-oxo-chromen-8-yl]ethoxy]pyridine-2-sulfonamide]
